The test system of assay [1] is RCC4/VHL. Description: XTT IC50 assay, selectivity RCC4 versus RCC4 with VHL-reintroduced. In kind it is cell-based, human. The note with it: selectivity ratio of XTT IC50 values, RCC4 vs RCC4/VHL. How it is done: (§1) RCC4 parental and RCC4 with VHL-reintroduced (RCC4/VHL), SN12C and SN12C-CSCG-VHL shRNA were maintained in DMEM supplemented with 10% FCS.
(§2) IC50 values for compounds were determined by XTT assay. For 2,3-bis[2-methoxy-4-nitro-5-sulfophenyl]-2H-tetrazolium-5-carboxanilide inner salt (XTT) assays, five thousand cells were plated in 96-well plates. The next day, vehicle or drug was added to each well and incubated for four days. Media was aspirated and phenol red-free medium with 0.3 mg/mL XTT and 2.65 ug/mL N-methyl dibenzopyrazine methyl sulfate was added. This was incubated at 37° C. for 1-2 hours and absorbance was read at 450 nm. IC50 values for each compound were calculated using linear interpolation.
(§3) For 2,3-bis[2-methoxy-4-nitro-5-sulfophenyl]-2H-tetrazolium-5-carboxanilide (XTT) assays, five thousand cells were plated in 96-well plates. The next day, vehicle (DMSO) or drug was added by serial dilution. Four days later, media were aspirated, XTT solution (0.3 mg/ml of XTT (Sigma), 2.65 mg/ml N-methyl dibenxopyrazine methyl sulfate (Simga) in phenol red-free media) was added, and the plates were incubated at 37° C. for 1-2 hours. Metabolism of XTT was quantified by measuring the absorbance at 450 nm. IC50s were calculated using linear interpolation. For clonogenic survival assays, three hundred cells were plated per 60 mm tissue culture dish. The cells were allowed to attach overnight and then treated with vehicle or drug for 14 days. Colonies were fixed and stained with crystal violet (0.1% crystal violet in 95% ethanol). All conditions were measured in triplicate and each experiment was done in duplicate or triplicate. To determine necrosis, cells were treated with drug for a given time point. Media and cells were collected, centrifugated, and resuspended in 0.4% trypan blue (Invitrogen). Live and dead cells were counted on a hematocytometer.
A general note: Tetrazolium assays rely on reduction of a dye to a coloured formazan, in cell work by metabolically active cells.

The test system of assay [2] is RCC4. Briefly: XTT IC50 / viability assay, RCC4 cells. The assay is classed as cell-based, human. The conditions noted are these: Homo sapiens, RCC4, 96 h; XTT assay, four days. How it is done: as §1, §2, §3

Consider 27 molecules from patent publication US20120225862A1, “HETEROARYL BENZAMIDES, COMPOSITIONS AND METHODS OF USE” (AUCKLAND UNIVSERVICES LIMITED, priority 2009, published 2012).

One may read the IC50 as the concentration that inhibits the measured activity by half. Turning to `Cc1nc(-c2cccc(S(=O)(=O)NCc3ccc(C(=O)Nc4cccnc4)cc3)c2)cs1` [Example 31, 4-[({[3-(2-Methyl-1,3-thiazol-4-yl)phenyl]sulfonyl}amino)methyl]-N-(3-pyridinyl)benzamide], the “Ratio (RCC4:RCC/VHL)” value in assay [1] was “b (“b” reflects from 10 to 100)”. The molecule also returned an IC50 in assay [2] of 1000 to 20000 nM.
For `Nc1ccc(S(=O)(=O)NCc2ccc(C(=O)Nc3cccnc3)cc2)cc1` [Example 32, 4-((4-Aminophenylsulfonamido)methyl)-N-(pyridin-3-yl)benzamide] the same measures were “b (“b” reflects from 10 to 100)” and 1000 to 20000 nM.
For `COc1ccc(S(=O)(=O)NCc2ccc(C(=O)Nc3cccnc3)cc2)cc1` [Example 33, 4-((4-Methoxyphenylsulfonamido)methyl)-N-(pyridin-3-yl)benzamide], the “Ratio (RCC4:RCC/VHL)” value in assay [1] was “b (“b” reflects from 10 to 100)”. This molecule also registered an IC50 in assay [2] of 1000 to 20000 nM.
For `CCCCOc1ccc(S(=O)(=O)NCc2ccc(C(=O)Nc3cccnc3)cc2)cc1` [Example 34, 4-((4-Butoxyphenylsulfonamido)methyl)-N-(pyridin-3-yl)benzamide] the same measures were “b (“b” reflects from 10 to 100)” and < 1000 nM.
On the same counts, the results for `O=C(Nc1cccnc1)c1ccc(CNS(=O)(=O)c2ccc(Oc3ccccc3)cc2)cc1` [Example 35, 4-((4-Phenoxyphenylsulfonamido)methyl)-N-(pyridin-3-yl)benzamide] are “b (“b” reflects from 10 to 100)” and 1000 to 20000 nM.
For the molecule `Cc1ccc(S(=O)(=O)NCc2ccc(C(=O)Nc3cccnc3)cc2)cc1` [Example 36, 4-((4-Methylphenylsulfonamido)methyl)-N-(pyridin-3-yl)benzamide], the “Ratio (RCC4:RCC/VHL)” value in assay [1] is “b (“b” reflects from 10 to 100)”. This molecule displayed a half-inhibitory concentration (IC50) in assay [2] of 1000 to 20000 nM.
In the case of `CCCc1ccc(S(=O)(=O)NCc2ccc(C(=O)Nc3cccnc3)cc2)cc1` [Example 37, 4-((4-Propylphenylsulfonamido)methyl)-N-(pyridin-3-yl)benzamide], in assay [1], the “Ratio (RCC4:RCC/VHL)” value is “b (“b” reflects from 10 to 100)”. Also, in assay [2], the IC50 is < 1000 nM.
For `CC(=O)Nc1ccc(S(=O)(=O)NCc2ccc(C(=O)Nc3cccnc3)cc2)cc1` [Example 42, 4-((4-Acetamidophenylsulfonamido)methyl)-N-(pyridin-3-yl)benzamide] the same measures were “a (“a” reflects a ratio of RCC4/RCC-VHL+ ranging from 1 to 10)” and 1000 to 20000 nM.
Regarding `O=C(Nc1cccnc1)c1ccc(CNS(=O)(=O)c2ccc(F)cc2)cc1` [Example 43, 4-((4-Fluorophenylsulfonamido)methyl)-N-(pyridin-3-yl)benzamide], in assay [1], the “Ratio (RCC4:RCC/VHL)” value was “a (“a” reflects a ratio of RCC4/RCC-VHL+ ranging from 1 to 10)”. For the same molecule, the IC50 in assay [2] fell in the range of 1000 to 20000 nM.
With `O=C(Nc1cccnc1)c1ccc(CNS(=O)(=O)c2ccc(Cl)cc2)cc1` [Example 44, 4-((4-Chlorophenylsulfonamido)methyl)-N-(pyridin-3-yl)benzamide], in assay [1], the “Ratio (RCC4:RCC/VHL)” value was “b (“b” reflects from 10 to 100)”. In addition, in assay [2], the IC50 lay within 1000 to 20000 nM.
For `O=C(Nc1cccnc1)c1ccc(CNS(=O)(=O)c2ccc(Br)cc2)cc1` [Example 45, 4-((4-Bromophenylsulfonamido)methyl)-N-(pyridin-3-yl)benzamide] the same measures were “b (“b” reflects from 10 to 100)” and 1000 to 20000 nM.
On the same counts, the results for `O=C(Nc1cccnc1)c1ccc(CNS(=O)(=O)c2ccc(OC(F)(F)F)cc2)cc1` [Example 46, N-(Pyridin-3-yl)-4-((4-(trifluoromethoxy)phenylsulfonamido)methyl)benzamide] are “b (“b” reflects from 10 to 100)” and 1000 to 20000 nM.
Regarding `CC(=O)c1ccc(S(=O)(=O)NCc2ccc(C(=O)Nc3cccnc3)cc2)cc1` [Example 48, 4-((4-Acetylphenylsulfonamido)methyl)-N-(pyridin-3-yl)benzamide], in assay [1], the “Ratio (RCC4:RCC/VHL)” value is given as “b (“b” reflects from 10 to 100)”. Moreover, the IC50 in assay [2] was < 1000 nM.
Take `O=C(Nc1cccnc1)c1ccc(CNS(=O)(=O)c2ccc(C(F)(F)F)cc2)cc1` [Example 49, N-(Pyridin-3-yl)-4-((4-(trifluoromethyl)phenylsulfonamido)methyl)benzamide]: the “Ratio (RCC4:RCC/VHL)” value in assay [1] is recorded as “a (“a” reflects a ratio of RCC4/RCC-VHL+ ranging from 1 to 10)”. The molecule further showed an IC50 in assay [2] of 1000 to 20000 nM.
For `N#Cc1ccc(S(=O)(=O)NCc2ccc(C(=O)Nc3cccnc3)cc2)cc1` [Example 50, 4-((4-Cyanophenylsulfonamido)methyl)-N-(pyridin-3-yl)benzamide] the same measures were “a (“a” reflects a ratio of RCC4/RCC-VHL+ ranging from 1 to 10)” and 1000 to 20000 nM.
On to `COc1ccc(-c2ccc(S(=O)(=O)NCc3ccc(C(=O)Nc4cccnc4)cc3)cc2)cc1` [Example 52, 4-({[(4′-Methoxy[1,1′-biphenyl]-4-yl)sulfonyl]amino}methyl)-N-(3-pyridinyl)benzamide], for which the “Ratio (RCC4:RCC/VHL)” value in assay [1] is given as “b (“b” reflects from 10 to 100)”. The molecule also displayed an IC50 in assay [2] of 1000 to 20000 nM.
On the same counts, the results for `Cc1ccc(-c2ccc(S(=O)(=O)NCc3ccc(C(=O)Nc4cccnc4)cc3)cc2)cc1` [Example 53, 4-({[(4′-Methyl[1,1′-biphenyl]-4-yl)sulfonyl]amino}methyl)-N-(3-pyridinyl)benzamide] are “a (“a” reflects a ratio of RCC4/RCC-VHL+ ranging from 1 to 10)” and 1000 to 20000 nM.
For `O=C(Nc1cccnc1)c1ccc(CNS(=O)(=O)c2ccc(-c3ccccc3)cc2)cc1` [Example 54, 4-((Biphenyl-4-ylsulfonamido)methyl)-N-(pyridin-3-yl)benzamide] the same measures were “b (“b” reflects from 10 to 100)” and 1000 to 20000 nM.
On the same counts, the results for `O=C(Nc1cccnc1)c1ccc(CNS(=O)(=O)c2ccc(-c3ccc(F)cc3)cc2)cc1` [Example 55, 4-({[(4′-Fluoro[1,1′-biphenyl]-4-yl)sulfonyl]amino}methyl)-N-(3-pyridinyl)benzamide] are “b (“b” reflects from 10 to 100)” and < 1000 nM.
For `O=C(Nc1cccnc1)c1ccc(CNS(=O)(=O)c2ccc(-c3ccc(Cl)cc3)cc2)cc1` [Example 56, 4-({[(4′-Chloro[1,1′-biphenyl]-4-yl)sulfonyl]amino}methyl)-N-(3-pyridinyl)benzamide], the “Ratio (RCC4:RCC/VHL)” value in assay [1] is “b (“b” reflects from 10 to 100)”. For the same molecule, in assay [2], the IC50 was in the range of 1000 to 20000 nM.
For `O=C(Nc1cccnc1)c1ccc(CNS(=O)(=O)c2ccc(-c3ncccn3)cc2)cc1` [Example 57, 4-[({[4-(2-Pyrimidinyl)phenyl]sulfonyl}amino)methyl]-N-(3-pyridinyl)-benzamide] the same measures were “b (“b” reflects from 10 to 100)” and < 1000 nM.
On the same counts, the results for `O=C(Nc1cccnc1)c1ccc(CNS(=O)(=O)c2ccc(-n3cccn3)cc2)cc1` [Example 58, 4-[({[4-(1H-Pyrazol-1-yl)phenyl]sulfonyl}amino)methyl]-N-(3-pyridinyl)benzamide] are “a (“a” reflects a ratio of RCC4/RCC-VHL+ ranging from 1 to 10)” and 1000 to 20000 nM.
For `Cc1nc(-c2ccc(S(=O)(=O)NCc3ccc(C(=O)Nc4cccnc4)cc3)cc2)cs1` [Example 59, 4-[({[4-(2-Methyl-1,3-thiazol-4-yl)phenyl]sulfonyl}amino)methyl]-N-(3-pyridinyl)benzamide] the same measures were “b (“b” reflects from 10 to 100)” and 1000 to 20000 nM.
Consider `O=C(Nc1cccnc1)c1ccc(CNS(=O)(=O)c2ccc(-c3cnco3)cc2)cc1` [Example 60, 4-[({[4-(1,3-Oxazol-5-yl)phenyl]sulfonyl}amino)methyl]-N-(3-pyridinyl)benzamide], for which, in assay [1], the “Ratio (RCC4:RCC/VHL)” value is “b (“b” reflects from 10 to 100)”. In assay [2], the IC50 was < 1000 nM.
As for `COc1ccc(S(=O)(=O)NCc2ccc(C(=O)Nc3cccnc3)cc2)cc1OC` [Example 61, 4-((3,4-Dimethoxyphenylsulfonamido)methyl)-N-(pyridin-3-yl)benzamide], in assay [1], the “Ratio (RCC4:RCC/VHL)” value is “c (“c” reflects a ratio of >100)”. For the same molecule, the IC50 in assay [2] was < 1000 nM.
On the same counts, the results for `COc1ccc(S(=O)(=O)NCc2ccc(C(=O)Nc3cccnc3)cc2)cc1C(C)(C)C` [Example 62, 4-((3-tert-Butyl-4-methoxyphenylsulfonamido)methyl)-N-(pyridin-3-yl)benzamide] are “c (“c” reflects a ratio of >100)” and < 1000 nM.
For `Cc1c(C)c(C)c(S(=O)(=O)NCc2ccc(C(=O)Nc3cccnc3)cc2)c(C)c1C` [Example 63, 4-((2,3,4,5,6-Pentamethylphenylsulfonamido)methyl)-N-(pyridin-3-yl)benzamide] the same measures were “b (“b” reflects from 10 to 100)” and < 1000 nM.
